From US20260286322A1, “PROTEIN TYROSINE P[…] DOMAIN PEPTIDE DIMER FOR NERVOUS SYSTEM REPAIR” (NervGen Pharma Corp., priority 2023, published 2026) come the findings set out here.

Assay [1] relates to rat model of thoracic traumatic Spinal Cord Injury (SCI). Briefly: Basso, Beattie and Bresnahan (BBB) open-field locomotor rating scale in SCI rats. In kind it is in vivo. The text has this: The goal of this study is to test the efficacy of a novel peptide dimer (Intracellular Sigma blocking peptide (ISP) dimer according to the present disclosure on behavioral changes in a rat model of thoracic traumatic Spinal Cord Injury (SCI).
Adult, female Lewis rats (~160 g on arrival) from Envigo were used as the subjects receiving the treatment in the study. The rats were assigned unique identification numbers (PGI ID and tail marks) and housed in ventilated cages. All rats were examined, handled, and weighed prior to initiation of the study to assure adequate health and suitability. During the course of the study, 12/12 light/dark cycles were maintained. The room temperature was maintained between […] and 23° C. with a relative humidity maintained around 50%. Chow and water were provided adlibitum for the duration of the study. The rats were randomly assigned across treatment groups. Body weights were taken twice a week during the study.
Lyophilized Compound 8 was dissolved in saline and injected s.c. at a volume of 500 μl to animal once daily from day 1-day 49 post spinal cord injury.
The dose concentration was 0.8 mg/ml, corresponding to 400 μg/rat. After reconstitutions, the solution was aliquoted and kept at −20° C. until dosing.
12-13 rats were used in each of the following two groups: • 1. Control group: SCI+Saline • 2. Testing group: SCI+Compound 8 in Saline.
Spinal cord injury (SCI) was introduced to the rats by surgery using the Infinite Horizon (IH) Impactor (200 kDyn force) described by Scheff et al. 2003. The surgery was performed with aseptic procedures in a designated area under deep anesthesia. Rats were anesthetized with isoflurane (4% for induction, 2% for maintenance), and O2 (300 cm^3/min) mixture. Hair was removed from the surgical site with clippers and the skin wase scrubbed with an antiseptic detergent. To maintain body temperature the animals were placed upon a homoeothermic blanket system. The T8 Vertebra of the rat was located externally, and an incision was made exposing the vertebral column from T6-T11. A laminectomy was performed using a surgical microscope to expose the dorsal spinal cord at the thoracic (T8) vertebral level. The vertebral column was stabilized by clamping the nearest rostral and caudal vertebral processes and the injury was produced using the IH impactor device at a 200 kDyn force. After each lesion the IH graphs and impact data were reviewed and recorded, rats presenting an impact force more than 10% higher or lower than expected and/or any abnormality on the force/displacement impact graphs were excluded from the study. Additionally, animals scoring more than 1 points in the Basso, Beattie and Bresnahan (BBB) score scale at 1 days after SCI were excluded for the study as well.
Locomotion changes were assessed using an open-field locomotor test (the Ohio State BBB Locomotor Rating Scale developed by Basso, et al. 1995). During each test, rats were observed moving around an empty wading pool for 4 minutes. Movements of joints in the hind limbs, weight support, and coordination between limbs were scored according to the BBB scale. This scale tracks the progressive recovery of hind-limb function following thoracic SCI. The scale can be divided into three parts reflecting the stages of recovery. […] BBB was assessed on days 1, 4 and 7 post injury and then weekly until completion of the study.
The BBB score scale obtained at day 1 after SCI was used to keep injury consistency. […] At Day 1 after SCI, only animals scoring either 0 (no observable hind-limb movement) or 1 (slight movement of one or two hind-limbs joins) in the BBB scale were enrolled in the study and allocated into treatment groups. The treatments groups were balanced using the BBB score obtained at day 1 after SCI.
Data was analyzed by analysis of variance (ANOVA) followed by post-hoc comparisons where appropriate. An effect was considered significant if p<0.05. […]

A further assay relates to SCI rats. In words: Percentage of SCI rats reaching predefined BBB and/or bladder score thresholds at end of study. In kind it is in vivo, rat. An excerpt: In this study, the effects of Compound 8 in improving the recovery of open field locomotor performance and bladder function in the SCI rats were further evaluated in comparison with Compound 4 by assessing the BBB scores and bladder scores according to the methods described in Example 3.
In this assessment, 12-13 rats were included in each of the following groups (1) Control group 1: SCI+saline alone; (2) Control group 2: SCI+Compound 4 in saline; (3) Testing group: SCI+Compound 8. The treatment was started on day 1 post-injury and continued through (last dose administered on) day 49 post-injury. The post-treatment observation period commenced on day 50 post-injury and continued until the end of study on day 84 post-injury.
At the end of the study, the performance of Compound 8 was evaluated in comparison with Compound 4 and saline alone by calculating the percentages of animals achieving predefined thresholds of functional improvement in the following categories: (i) Simultaneous improvement in BBB and bladder scores, (ii) Improvement in the locomotor function (BBB score) alone but not the in the bladder score, (iii) Improvement in the bladder score alone but not in the BBB score. FIG. 16 depicts the percentage of rats in each of these three categories, as annotated on the X-axis. An additional group (annotated as “Combined”) represents the combined percentage of rats achieving improvement in any of the first three categories for each treatment cohort (saline alone, Compound 4, and Compound 8). […]

Setting [2] is: week 7 post-SCI, 13 rats in group.

Regarding “TAT-Cys-rodent PTPRS wedge domain homodimer [Compound 8]”, the “locomotor performance measured with weekly average BBB scores vs saline alone” value in assay [1] (RM ANOVA, Tukey, p<0.0001 for each compound) is “significant improvement”. Further, in assay [1] (RM ANOVA, Tukey, p=0.0017), the “improving the BBB scores, compared with Compound 4” value was “more efficacious”. In addition, the “recovery of movements of joints in the hind limbs, weight support, and coordination between limbs” value in assay [1] (SCI rats, vs saline) was “promotes the recovery”. The “share of rats achieving BBB scores of 10 or above” value in assay [1] (after 70 days post SCI, group (3)) is recorded as “More than half”. Besides, the “number of rats having BBB scores of 6 to 7” value in assay [1] (day 7 post-SCI, 13 rats in group, 400 μg/rat s.c. once daily) is 6 rats. Moreover, the “percentage of rats that achieved a BBB score of 11” value in assay [1] (day 77 post-SCI) is reported as “more than 20%”. Also, the “percentage of rats that achieved a BBB score of 11” value in assay [1] (day 84 post-SCI) is on record as “about 50%”. For the same substance, the “maximum BBB score in the cohort” value in assay [1] (end of study) is reported as 11. Besides, in assay [1] (setting [2]), the “number of rats with a BBB score of 10” value turned out to be 6 rats and the “number of rats with a BBB score of 11” value is 2 rats. Further, the “rats with BBB scores of about 10 or 11” value in assay [1] (week 12 post-SCI) was 8 out of 13. Also, in the assay on SCI rats (end of study), the “percentage of rats reaching BBB score of 11 alone” value was “about 8%”; the “percentage of rats with BBB score of 11 and bladder score of 2 or less simultaneously” value is on record as “about 40%”. For the same substance, in the assay with SCI rats (end of study (day 84)), the “percentage of rats with BBB score of at least 10 and bladder score of 2 or less simultaneously” value is about 50%; the “percentage of rats with improvement in the BBB score only (at least 10, no bladder score improvement)” value was “about 15%”. Also, the “percentage of rats with improvement in bladder-only scores (2 or less, no BBB improvement)” value with SCI rats (end of study (day 84), BBB threshold 10) is given as “about 8%”. In addition, the “combined rate of functional improvement (simultaneous, BBB only and bladder only combined)” value in the assay with SCI rats (end of study (day 84), thresholds BBB at least 10, bladder 2 or less) is reported as “about 70%”. Further, the “combined rate of functional improvement (BBB 11 only, bladder 2 or lower only, and both)” value with SCI rats (end of study, thresholds BBB 11, bladder 2 or lower) is reported as “about 60%”.
